Test results as given in publication PMC7996328, “Design, Synthesis, and Biological Evaluation of a Series of 5- and 7-Hydroxycoumarin Derivatives as 5-HT1A Serotonin Receptor Antagonists” (Pharmaceuticals, 2021).
“Also recorded” adds a separate entry of the source. Like-named read-outs stand apart in the source and are kept apart here.

How the values were obtained:
5-HT2A receptor = molecular target: T1, 5-HT2A receptor (Rattus norvegicus, UniProt P14842); experiment: 5-HT2A competition binding assay, [3H]ketanserin, frontal cortex homogenates; details: [3H]ketanserin 1 nM
T1 construct: from tissue; host or cells: rat frontal cortex (male SD), membrane homogenate
T1 sequence (P14842 whole entry): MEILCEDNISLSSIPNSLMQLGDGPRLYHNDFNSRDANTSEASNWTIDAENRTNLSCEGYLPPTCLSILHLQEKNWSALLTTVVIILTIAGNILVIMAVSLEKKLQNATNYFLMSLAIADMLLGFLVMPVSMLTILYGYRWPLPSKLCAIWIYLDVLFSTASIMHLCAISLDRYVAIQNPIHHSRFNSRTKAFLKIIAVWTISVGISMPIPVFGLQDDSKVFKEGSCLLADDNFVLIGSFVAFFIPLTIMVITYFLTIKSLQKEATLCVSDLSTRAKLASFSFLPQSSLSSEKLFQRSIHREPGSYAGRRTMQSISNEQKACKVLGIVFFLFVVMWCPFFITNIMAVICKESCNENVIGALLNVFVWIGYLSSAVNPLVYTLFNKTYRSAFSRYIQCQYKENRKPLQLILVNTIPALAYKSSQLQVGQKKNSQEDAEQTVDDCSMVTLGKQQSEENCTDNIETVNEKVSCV
Protocol: Male SD rats were decapitated and their brains removed and placed on ice. Frontal cortices were homogenized with a glass homogenizer in 30 vol ice-cold homogenization buffer (50 mM Tris-HCl. 1 mM EDTA. 5 mM MgCl2. pH 7.4). Next, the homogenate was centrifuged at 20,000× g for 15 min at 4 °C. […] The suspension was again centrifuged at 20,000× g for 15 min at 4 °C. The pellet was resuspended in 10 vol. 50 mM Tris-HCl (pH 7.4) and the centrifugation step was repeated. The final pellet was suspended in 10 vol 50 mM Tris-HCl (pH 7.4) and stored at −80 °C.
Non-specific binding was determined in the presence of 10 μM mianserin. After incubation, the reaction mixture was deposited onto UniFilter-96 GF/B plates with the aid of a FilterMate-96 Harvester. Filter plates were presoaked beforehand with 0.4% PEI for 1 h. Next, each filter well was washed with 1.75 mL of 50 mM Tris-HCl (pH 7.4) and left to dry on a heating block set to 50 °C for 2 h. Then 45 µL of Microscint-20 scintillation fluid was added to each filter well and left to equilibrate overnight. Filter-bound radioactivity was counted in a MicroBeta^2 Microplate Counter. Binding curves were fitted with one site non-linear regression. Affinity was presented as the inhibitory constant (pKi ± SEM and Ki ± SEM) from two or three separate experiments.

5-HT1A receptor = molecular target: T2, 5-HT1A receptor (Rattus norvegicus, UniProt P19327); experiment: Antagonist activity for the 5-HT1A receptor, [35S]GTPγS assay in hippocampal homogenates; type: biochemical; details: 8-OH-DPAT 1.4 × 10^−7 M, mean ± SEM; for EC50 / EC50 (nM ± SEM): antagonistic activity
T2 construct: Hippocampal homogenates (15 μg/mL) were added to each tube as the 5-HT1A receptor source; from tissue; host or cells: rat hippocampus (male Sprague-Dawley), membrane homogenate
T2 sequence (P19327 1-422): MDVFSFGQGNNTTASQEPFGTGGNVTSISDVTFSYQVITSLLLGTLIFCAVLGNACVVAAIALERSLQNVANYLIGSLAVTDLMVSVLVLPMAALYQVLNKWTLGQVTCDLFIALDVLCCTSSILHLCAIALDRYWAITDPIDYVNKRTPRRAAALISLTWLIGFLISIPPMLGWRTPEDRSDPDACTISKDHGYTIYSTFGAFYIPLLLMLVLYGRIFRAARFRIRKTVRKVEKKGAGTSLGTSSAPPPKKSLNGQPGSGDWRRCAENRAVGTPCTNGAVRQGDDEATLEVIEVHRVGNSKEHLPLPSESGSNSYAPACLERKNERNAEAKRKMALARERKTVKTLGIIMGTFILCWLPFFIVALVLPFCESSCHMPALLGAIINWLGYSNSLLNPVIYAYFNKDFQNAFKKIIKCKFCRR
Protocol: Male Sprague–Dawley rats were decapitated, their brains removed, and placed on ice. Hippocampi were dissected and homogenized with a glass homogenizer in 30 vol. ice-cold TED buffer (50 mM Tris-HCl, 1 mM EDTA, 1mM dithiotheritol, pH 7.4). Next, the homogenate was centrifuged at 21,000× g for 30 min at 4 °C. […] The suspension was centrifuged again at 21,000× g for 30 min at 4 °C. The pellet was resuspended in 30 vol. TED buffer (pH 7.4) and the centrifugation step was repeated. The final pellet was suspended in 10 vol 50 mM Tris-HCl (pH 7.4) and stored at −80 °C until use.
Serial dilutions of the compounds tested (10^−10–10^−5 M) were incubated in triplicate with 0.8 nM [^35S]GTPγS in assay buffer (50 mM Tris-HCl, pH = 7.4, 1 mM EGTA, 3 mM MgCl2, 100 mM NaCl, 30 µM GDP) and 8-OH-DPAT (final concentration 1.4 × 10^−7 M) in the final assay volume of 250 µL. Hippocampal homogenates (15 μg/mL) were added to each tube as the 5-HT1A receptor source. […] Non-specific binding was determined with 10 µM of unlabeled GTPγS. […] Next, 96-well Unifilter® Plates (Perkin Elmer, Waltham, MA, USA) were presoaked for 1 h with 50 mM Tris-HCl (pH = 7.4) before harvesting. The reaction was terminated by vacuum filtration onto filter plates with the FilterMate Harvester® (Perkin Elmer, Waltham, MA, USA). The samples were then rapidly washed with 2 mL of 50 mM Tris-HCl (pH = 7.4) buffer. Filter plates were dried for 2 h at 50 °C. After drying, 45 µL of EcoScint-20 scintillant (Perkin Elmer) was added to every well. Radioactivity was counted in a Trilux MicroBeta^2 counter (Perkin Elmer). Data were analyzed with GraphPad Prism 5.0 software (GraphPad Software, San Diego, CA, USA, www.graphpad.com). Curves were fitted with a one-site non-linear regression model. Efficacy (Emax) and half maximal inhibitory concentration (IC50) were calculated from the Cheng–Prusoff equation and expressed as means ± SEM.

[1] = read-out: Ki (nM ± SEM) (converted)
[2] = read-out: pKi (M ± SEM) (converted)

pIC50 ± SEM (5-HT1A receptor)	Compound	melting point [°C]	Ki (5-HT2A receptor; [1]) [nM]	Ki (5-HT2A receptor; [2]) [nM]	IC50 (5-HT1A receptor) [nM]	EC50 (5-HT1A receptor) [nM]	EC50 (nM ± SEM) (5-HT1A receptor)
	Cc1cc(OCCCCCBr)c2c(C)cc(=O)oc2c1 [Compound 1, 5-(5-bromopentyloxy)-4,7-dimethyl-2H-chromen-2-one]	99 to 101					
	COc1ccccc1N1CCN(CCCCCOc2cc(C)cc3oc(=O)cc(C)c23)CC1 [Compound 1a, 5-(5-(4-(2-methoxyphenyl)piperazin-1-yl)pentyloxy)-4,7-dimethyl-2H-chromen-2-one]	66 to 68	776 ± 187	644	31.6	29.4 ± 7.3	
	Cc1cc(OCCCCCN2CCN(c3ccccc3F)CC2)c2c(C)cc(=O)oc2c1 [Compound 1b, 5-(5-(4-(2-fluorophenyl)piperazin-1-yl)pentyloxy)-4,7-dimethyl-2H-chromen-2-one]	106 to 108	1260 ± 479		1000	980 ± 207	
	COc1cccc(N2CCN(CCCCCOc3cc(C)cc4oc(=O)cc(C)c34)CC2)c1 [Compound 1c, 5-(5-(4-(3-methoxyphenyl)piperazin-1-yl)pentyloxy)-4,7-dimethyl-2H-chromen-2-one]	103 to 105	610 ± 139		1580	1700 ± 358	
	Cc1cc(OCCCCCN2CCN(c3cccc(F)c3)CC2)c2c(C)cc(=O)oc2c1 [Compound 1e, 5-(5-(4-(3-fluorophenyl)piperazin-1-yl)pentyloxy)-4,7-dimethyl-2H-chromen-2-one]	101 to 102	2350 ± 673		25100	24300	
	Cc1cc(OCCCCCN2CCN(c3ccccc3Br)CC2)c2c(C)cc(=O)oc2c1 [Compound 1f, 5-(5-(4-(2-bromophenyl)piperazin-1-yl)pentyloxy)-4,7-dimethyl-2H-chromen-2-one]	143 to 144	1550 ± 323		20000	20900	
	Cc1cc(C)cc(N2CCN(CCCCCOc3cc(C)cc4oc(=O)cc(C)c34)CC2)c1 [Compound 1h, 5-(5-(4-(3,5-dimethylphenyl)piperazin-1-yl)pentyloxy)-4,7-dimethyl-2H-chromen-2-one]	104 to 106	1820 ± 636		200000	198000	
	Cc1cc(OCCCCCN2CCN(c3cccc(Cl)c3Cl)CC2)c2c(C)cc(=O)oc2c1 [Compound 1i, 5-(5-(4-(2,3-dichlorophenyl)piperazin-1-yl)pentyloxy)-4,7-dimethyl-2H-chromen-2-one]	162 to 163	1450 ± 653		15800	13700	
	Cc1cc(OCCCCCN2CCN(c3ccccc3C#N)CC2)c2c(C)cc(=O)oc2c1 [Compound 1j, 5-(5-(4-(2-cyanophenyl)piperazin-1-yl)pentyloxy)-4,7-dimethyl-2H-chromen-2-one]	148 to 149	79 ± 18		79400	74700	
	Cc1cc(OCCBr)c2c(C)cc(=O)oc2c1 [Compound 2, 5-(2-bromoethoxy)-4,7-dimethyl-2H-chromen-2-one]	121 to 123					
	COc1ccccc1N1CCN(CCOc2cc(C)cc3oc(=O)cc(C)c23)CC1 [Compound 2a, 5-(2-(4-(2-methoxyphenyl)piperazin-1-yl)ethoxy)-4,7-dimethyl-2H-chromen-2-one]	146 to 148	1710 ± 582		2000	1880 ± 427	
no activity	Cc1cc(OCCN2CCN(c3ccccc3F)CC2)c2c(C)cc(=O)oc2c1 [Compound 2b, 5-(2-(4-(2-fluorophenyl)piperazin-1-yl)ethoxy)-4,7-dimethyl-2H-chromen-2-one]	121 to 123	2130 ± 662				did not show any activity; also recorded: no activity
	COc1cccc(N2CCN(CCOc3cc(C)cc4oc(=O)cc(C)c34)CC2)c1 [Compound 2c, 5-(2-(4-(3-methoxyphenyl)piperazin-1-yl)ethoxy)-4,7-dimethyl-2H-chromen-2-one]	124 to 125	458 ± 109	468	20000	19100	
no activity	Cc1ccc(C)c(N2CCN(CCOc3cc(C)cc4oc(=O)cc(C)c34)CC2)c1 [Compound 2d, 5-(2-(4-(2,5-dimethylphenyl)piperazin-1-yl)ethoxy)-4,7-dimethyl-2H-chromen-2-one]	119 to 120	7320 ± 2080	7410			did not show any activity; also recorded: no activity
no activity	Cc1cc(OCCN2CCN(c3ccccc3Br)CC2)c2c(C)cc(=O)oc2c1 [Compound 2f, 5-(2-(4-(2-bromophenyl)piperazin-1-yl)ethoxy)-4,7-dimethyl-2H-chromen-2-one]	129 to 130	9600 ± 2840				did not show any activity; also recorded: no activity
	CC(=O)c1c(C)cc2oc(=O)cc(C)c2c1OCCCCCBr [Compound 3, 6-acetyl-5-(5-bromopentyloxy)-4,7-dimethyl-2H-chromen-2-one]	78 to 80					
	COc1ccccc1N1CCN(CCCCCOc2c(C(C)=O)c(C)cc3oc(=O)cc(C)c23)CC1 [Compound 3a, 6-acetyl-5-(5-(4-(2-methoxyphenyl)piperazin-1-yl)pentyloxy)-4,7-dimethyl-2H-chromen-2-one]		641 ± 128		39.8	39.4 ± 3.63	
	CC(=O)c1c(C)cc2oc(=O)cc(C)c2c1OCCBr [Compound 4, 6-acetyl-5-(2-bromoethoxy)-4,7-dimethyl-2H-chromen-2-one]	168 to 169					
	CC(=O)c1c(C)cc2oc(=O)cc(C)c2c1OCCN1CCN(c2cc(C)ccc2C)CC1 [Compound 4d, 6-acetyl-5-(2-(4-(2,5-dimethylphenyl)piperazin-1-yl)ethoxy)-4,7-dimethyl-2H-chromen-2-one]		11900		79400	74700	
	CC(=O)c1c(C)cc2oc(=O)cc(C)c2c1OCCN1CCN(c2cc(C)cc(C)c2)CC1 [Compound 4h, 6-acetyl-5-(2-(4-(3,5-dimethylphenyl)piperazin-1-yl)ethoxy)-4,7-dimethyl-2H-chromen-2-one]		1920 ± 382		39800	26800	
	COc1cccc(N2CCN(CCCCCOc3ccc4c(C)cc(=O)oc4c3C(C)=O)CC2)c1 [Compound 5c, 8-acetyl-7-(5-[4-(3-methoxyphenyl)piperazin-1-yl]penthoxy)-4-methylchromen-2-one]		144 ± 38		25100	22900	
	CC(=O)c1c(OCCBr)ccc2c(C)cc(=O)oc12 [Compound 6, 8-acetyl-7-(2-bromoethoxy)-4-methylchromen-2-one]	140 to 142					
